{"source": "patent US20240092779A1", "about": "“USP1 INHIBITORS AND USES THEREOF” (Zentaur Therapeutics USA Inc., priority 2022, published 2024)", "key": {"[1]": {"tested_on": "MDA-MB-436 subcutaneous human breast cancer model", "test": "In vivo efficacy in MDA-MB-436 subcutaneous xenograft", "details": "NOD SCID mice, 28 days", "experimental": "Anti-tumor efficacy of USP1 inhibitors were evaluated in mice using the MDA-MB-436 subcutaneous human breast cancer model that harbors the loss-of-function BRCA1 mutation. 6-8 weeks old female NOD SCID mice from Beijing Anikeeper Biotech Co., Ltd. were inoculated subcutaneously with 1×10^7 MDA-MB-436 tumor cells. When tumors reached a size of approximately 130 mm 3 mice were randomized into group of 5 or 9 and dosed via oral gavage once or twice daily for 28 days with either vehicle (twice daily, 9 animals), one dose of USP1 inhibitor 1-107 at 150 mg/kg (twice daily, 5 animals), three doses of USP1 inhibitor I-111 at […] (once daily, 9 animals per group), or one dose of USP1 inhibitor 1-124 at 150 mg/kg (twice daily, 5 animals). Body weight and tumor volume were measured twice per week. Tumor volume (TV) was calculated as mean and standard deviation of the mean for each treatment group. The percentage tumor growth inhibition (TGI) was calculated using the formula: TGI=(RTVvehicle−RTVtreatment)*100)/(RTVvehicle −1), where RTV is the mean relative volumes (RTV=TVDay terminal[…]) of the tumors in the treatment and the vehicle groups, respectively, on a given day from Day 0-Day 28 where Day 0 is the first day of treatment.\nAll treatment groups were well-tolerated, with various dose levels and dosing frequency for the duration of the treatment period from day 0 to day 28 in the tumor bearing mice, as shown in FIG. 2."}, "[2]": {"test": "Liver microsomal stability (HLM)", "type": "in vitro ADME", "details": "human, liver microsomes, human liver microsomes 0.5 mg/mL, 1 μM compound, NADPH"}, "[3]": {"test": "Solubility in FaSSIF (Fasted State Simulated Intestinal Fluid)", "type": "physicochemical", "details": "kinetic from dmso stock, FaSSIF pH 6.5, 25° C.", "experimental": "Solubility in FaSSIF (Fasted State Simulated Intestinal Fluid)\nCertain Compounds of the Disclosure were assessed for the apparent solubility in FaSSIF.\n0.420 g of NaOH, 3.438 g of NaH2PO4 and 6.186 g of NaCl were dissolved into about 900 mL ultrapure water. The solution was adjusted to the pH of 6.5 with 1N NaOH or 1N HCl. The solution was then diluted with ultrapure water to 1000 mL at room temperature. The resulting solution is used as buffer solution.\n2.240 g of FaSSIF Powder was added to about 500 mL of above-mentioned buffer solution. The solution was stirred until powder was completely dissolved. Then the solution was diluted with buffer A to 1000 mL at room temperature. This solution is FaSSIF to be used in the following experiment.\n15 μL of stock solution (10 mM) of each sample was placed into their proper 96-well rack. 485 μL of FaSSIF was added into each vial of the cap-less solubility sample plate. One stir stick was added to each vial and the vial was sealed using a molded PTFE/Silicone plug. The solubility sample plate was transferred to the Eppendorf Thermomixer Comfort plate shaker and shaked at 25° C. at 1100 RPM for 2 hours. After completion of the 2 hours, the stir sticks using a big magnet were removed. The samples from the solubility sample plate were transferred into the filter plate. Using the vacuum manifold, all the samples are filtered. Aliquot of 5 μL was taken from filtrate followed by addition of 5 μL DMSO and 490 μL of a mixture of H2O and acetonitrile containing internal standard (1:1).\n3 μM Standards solution (STD) was prepared from the 10 mM DMSO STD plate.as following: transferring 6 μL into the remaining empty plate, adding 194 μL of DMSO to that plate to have a STD concentration of 300 μM. From the 300 μM DMSO STD plate, 5 μL solution was transferred into the remaining empty plate. Addition of 5 μL PBS and 490 μL of a mixture of H2O and acetonitrile containing internal standard (1:1) to that plate furnished a final STD concentration of 3 μM STD solution.\nThe samples are analyzed and quantified against the standard of known concentration using LC/MS/MS, calculating the solubility of the test compound as following (DF means the dilution factor):\n[Sample solubility in FsSSIF (04)]=Area Ratio sample×DF sample×[STD]/Area Ratio STD"}}}
{"smiles": "COc1ncnc(C2CC2)c1-c1ncc2cc(C3CCN(C)CC3)c(=O)n(Cc3ccc(-c4nc(C(F)(F)F)cn4C4CC4)cc3)c2n1", "note": "[Compound I-111]", "values": [{"measurement": "TGI (tumor growth inhibition)", "setting": "[1]; 10 mg/kg QD oral gavage", "value": "~55", "unit": "%"}, {"measurement": "TGI (tumor growth inhibition)", "setting": "[1]; 30 mg/kg QD oral gavage", "value": "~80", "unit": "%"}, {"measurement": "TGI (tumor growth inhibition)", "setting": "[1]; 60 mg/kg QD oral gavage", "value": "> 100", "unit": "%"}, {"measurement": "microsomal CLint at 1 μM", "setting": "[2]", "value": "< 10", "unit": "µL/min/mg"}, {"measurement": "solubility at 2 h", "setting": "[3]", "value": "≥ 100", "unit": "µM"}]}
